{"source": "paper PMC3836680", "about": "(Amino acids, 2011)", "target": "S. pyogenes P5C reductase (Streptococcus pyogenes, UniProt Q9A1S9)", "experiment": "P5C reductase inhibition assay", "assay_type": "biochemical", "conditions": "read-out: Enzyme inhibition at 0.2 mM"}
{"compound": "NC(P(=O)(O)O)P(=O)(O)O", "note": "[Compound 01, aminomethylenebisphosphonic acid]", "values": [{"measurement": "inhibition at 200 µM", "result": "3 ± 2.1", "unit": "%"}]}
